What was measured:
[1] = test system: human breast cancer cells MCF7; test: In vitro anti-tumor activity, MTT method; format: cell-based; settings: MCF-7, MTT, 96-hour treatment
Protocol: (§1) The inhibitory effects of the compounds against human non-small cell lung cancer cell lines A549, NCI-H1650, human small cell lung cancer cell lines H446, human prostate cancer cells DU145, PC-3, LNCAP, human colon cancer cells lines HCT116, human breast cancer cells MDA-MB-231, and MCF7 tumor cell lines were determined using the MTT method.
(§2) The method was as follows. The cells in the exponential growth phase were collected to count living cells. The concentration of the cell suspension was adjusted using the corresponding medium of each group of cells. The cell suspension was added to the 96-well culture plate at 100 μL per cell, and the plate was placed in a 5% CO2 incubator at 37° C. and incubated for 24 h. Each test compound was dissolved in DMSO to prepare a stock solution with a corresponding concentration. Then, each stock solution was diluted 500-fold with the medium to prepare 4 replicate wells. 100 μL of the corresponding 500-fold solution was added to each well per cell line, with the final DMSO concentration of 0.1%. […] The half-maximal (relative to the DMSO control group) inhibition rate was calculated using the software GraphPad Prism 4.

[2] = test system: human non-small cell lung cancer cell line A549; test: In vitro anti-tumor activity, MTT method; format: cell-based; settings: 96-hour treatment
Protocol: as §1, §2

[3] = test system: human prostate cancer cells PC-3; test: In vitro anti-tumor activity, MTT method; format: cell-based; settings: PC-3, MTT, 96-hour treatment
Protocol: as §1, §2

[4] = test system: human prostate cancer cells DU145; test: In vitro anti-tumor activity, MTT method; format: cell-based; settings: 96-hour treatment
Protocol: as §1, §2

[5] = test system: HDAC; test: HDAC inhibitory activity assay (FRET); format: biochemical; settings: for IC50: HDAC, FRET, read-out: Half-maximal inhibitory concentration (IC50 ± SD); for Inhibition rate: test concentration 100 nM, relative to DMSO control
Protocol: The HDAC inhibitory activity of the synthesized compounds was determined by fluorescence resonance energy transfer (FRET), and then compared with that of the positive control to screen out compounds with better activity. HDAC was obtained by purification or purchased directly.
The method was as follows.
An enzyme was added to reaction wells, a reaction buffer was added to control wells, a sample dissolved in DMSO was added to the reaction wells, and the wells were incubated using a contactless nanoflow sonic pipetting system (Ech-550; nanoflow). A fluorescent substrate was added to each reaction well and then rotated and shaken. The wells were incubated for 1-2 h at 30° C. under a sealed condition. A TMP26-containing chromogenic agent was added to terminate the reaction and produce fluorescence. The fluorescence intensity was detected using En Vision multi-label microplate detector (Perkin Elmer) (excitation light: 490 nm, emitted light: 520 nm). After the stabilization of color development, the endpoint value was read. The percentage (relative to the DMSO control group) inhibition rate was calculated using the software GraphPad Prism 4.

| Structure (SMILES) | IC50 ([1]; Homo sapiens, MCF7, 96 h) [nM] | IC50 ([2]; Homo sapiens, A549, 96 h) [nM] | IC50 ([3]; Homo sapiens, 96 h) [nM] | IC50 ([4]; Homo sapiens, DU-145, 96 h) [nM] | IC50 [5] [nM] | IC50 [1] [nM] | IC50 [3] [nM] | IC50 [4] [nM] | IC50 [2] [nM] | Inhibition rate [5] | Inhibition rate ([5]; 0.1 µM) |
| --- | --- | --- | --- | --- | --- | --- | --- | --- | --- | --- | --- |
| O=C(CCCCN1C(=O)C/C(=C\c2ccccc2)C1=O)N[C@H]1CCCC[C@@H]1O [Example I-11, 5-(3-((E)-benzal)-2,5-diketopyrrolidinyl)-N-((1S,2S)-2-hydroxycyclohexyl)pentanamide] | > 20000 | > 20000 | > 20000 | > 20000 | – | – | – | – | – | – | – |
| COc1cc(/C=C2\CC(=O)N(CCCCCCC(=O)NO)C2=O)cc(OC)c1O [Example I-36, (E)-7-(3-(4-hydroxy-3,5-dimethoxybenzal)-2,5-diketopyrrolidinyl)-N-hydroxyheptamide] | 1880 ± 140 | > 10000 | 1730 ± 200 | 3880 ± 40 | – | – | – | – | – | 74.8% ± 2.8% | – |
| COc1ccc(/C=C2\CC(=O)N(CCCCCCC(=O)NO)C2=O)cc1OC [Example I-34, (E)-7-(3-(3,4-dimethoxybenzal)-2,5-diketopyrrolidinyl)-N-hydroxyheptamide] | 820 ± 90 | 1230 ± 170 | 880 ± 100 | 450 ± 120 | – | – | – | – | – | 85.3% ± 7.2% | – |
| O=C(CCCCCN1C(=O)C/C(=C\c2ccccc2)C1=O)N[C@H]1CCCC[C@@H]1O [Example I-12, 6-(3-((E)-benzal)-2,5-diketopyrrolidinyl)-N-((1S,2S)-2-hydroxycyclohexyl)hexanamide] | > 20000 | > 20000 | > 20000 | > 20000 | – | – | – | – | – | 0% | – |
| O=C(NO)c1ccc(CN2C(=O)C/C(=C\c3ccccc3)C2=O)cc1 [Example I-41, (E)-4-((3-benzal-2,5-diketopyrrolidinyl)methyl)-N-hydroxybenzamide] | 6970 ± 830 | 3090 ± 410 | 7820 ± 900 | 2540 ± 410 | – | – | – | – | – | 77.1% ± 1.8% | – |
| COc1cc(Br)ccc1/C=C1\CC(=O)N(CCCCCCC(=O)NO)C1=O [Example I-40, (E)-7-(3-(4-bromo-2-methoxybenzal)-2,5-diketopyrrolidinyl)-N-hydroxyheptamide] | 320 ± 20 | 1490 ± 90 | 670 ± 100 | 250 ± 40 | 5.5 ± 0.03 | – | – | – | – | – | – |
| Nc1cc(F)ccc1NC(=O)CCCCCCN1C(=O)C/C(=C\c2ccccc2)C1=O [Example I-9, (E)-N-(2-amino-4-fluorophenyl)-7-(3-benzal-2,5-diketopyrrolidinyl)heptamide] | > 20000 | > 20000 | > 20000 | > 20000 | – | – | – | – | – | – | – |
| COc1ccc(Br)cc1/C=C1\CC(=O)N(CCCCCCC(=O)NO)C1=O [Example I-39, (E)-7-(3-(5-bromo-2-methoxybenzal)-2,5-diketopyrrolidinyl)-N-hydroxyheptamide] | 680 ± 90 | 2210 ± 270 | 1130 ± 70 | 460 ± 40 | – | – | – | – | – | 88.1% ± 1.1% | – |
| COc1cc(/C=C2\CC(=O)N(CCCCCCC(=O)NO)C2=O)cc(OC)c1OC [Example I-35, (E)-7-(3-(3,4,5-trimethoxybenzal)-2,5-diketopyrrolidinyl)-N-hydroxyheptamide] | 1270 ± 130 | 3630 ± 650 | 1710 ± 170 | 1030 ± 140 | – | – | – | – | – | 82.5% ± 3.5% | – |
| Nc1cc(F)ccc1NC(=O)CCCCN1C(=O)C/C(=C\c2ccccc2)C1=O [Example I-7, (E)-N-(2-amino-4-fluorophenyl)-5-(3-benzal-2,5-diketopyrrolidinyl)pentanamide] | > 20000 | > 20000 | > 20000 | > 20000 | – | – | – | – | – | 0% | – |
| O=C(CCCCCCN1C(=O)C/C(=C\c2ccc(Cl)c(Cl)c2)C1=O)NO [Example I-30, (E)-7-(3-(3,4-dichlorobenzal)-2,5-diketopyrrolidinyl)-N-hydroxyheptamide] | 900 ± 20 | 2340 ± 100 | 1690 ± 80 | 440 ± 80 | – | – | – | – | – | 82.1% ± 0.1% | – |
| Nc1cc(F)ccc1NC(=O)CCCN1C(=O)C/C(=C\c2ccccc2)C1=O [Example I-6, (E)-N-(2-amino-4-fluorophenyl)-4-(3-benzal-2,5-diketopyrrolidinyl) butyramide] | – | – | – | – | – | > 20000 | > 20000 | > 20000 | > 20000 | – | – |
| O=C(CCCN1C(=O)C/C(=C\c2ccccc2)C1=O)N[C@H]1CCCC[C@@H]1O [Example I-10, 4-(3-((E)-benzal)-2,5-diketopyrrolidinyl)-N-((1S,2S)-2-hydroxycyclohexyl) butyramide] | > 20000 | > 20000 | > 20000 | > 20000 | – | – | – | – | – | – | – |

Continued, in another order:

| IC50 ([1]; Homo sapiens, MCF7, 96 h) [nM] | IC50 ([2]; Homo sapiens, A549, 96 h) [nM] | IC50 ([3]; Homo sapiens, 96 h) [nM] | IC50 ([4]; Homo sapiens, DU-145, 96 h) [nM] | IC50 [5] [nM] | IC50 [1] [nM] | IC50 [3] [nM] | IC50 [4] [nM] | IC50 [2] [nM] | Structure (SMILES) | Inhibition rate [5] | Inhibition rate ([5]; 0.1 µM) |
| --- | --- | --- | --- | --- | --- | --- | --- | --- | --- | --- | --- |
| 820 ± 50 | 2820 ± 390 | 870 ± 100 | 740 ± 100 | 40.1 ± 1.21 | – | – | – | – | N#Cc1ccccc1/C=C1\CC(=O)N(CCCCCCC(=O)NO)C1=O [Example I-20, (E)-7-(3-(2-cyanobenzal)-2,5-diketopyrrolidinyl)-N-hydroxyheptamide] | – | – |
| 880 ± 90 | 1240 ± 210 | 920 ± 30 | 400 ± 40 | 18.5 ± 0.19 | – | – | – | – | COc1cccc(/C=C2\CC(=O)N(CCCCCCC(=O)NO)C2=O)c1 [Example I-32, (E)-7-(3-(3-methoxybenzal)-2,5-diketopyrrolidinyl)-N-hydroxyheptamide] | – | – |
| – | 1880 ± 170 | – | – | – | 460 ± 40 | 2200 ± 80 | 310 ± 50 | – | Cc1ccc(/C=C2\CC(=O)N(CCCCCCC(=O)NO)C2=O)cc1 [Example I-18, (E)-7-(3-(4-methylbenzal)-2,5-diketopyrrolidinyl)-N-hydroxyheptamide] | – | 85.9% ± 0.9% |
| 830 ± 50 | 2810 ± 100 | 1060 ± 130 | 650 ± 90 | – | – | – | – | – | O=C(CCCCCCN1C(=O)C/C(=C\c2cccc(Br)c2)C1=O)NO [Example I-27, (E)-7-(3-(3-bromobenzal)-2,5-diketopyrrolidinyl)-N-hydroxyheptamide] | 90.9% ± 1.2% | – |
| 1540 ± 90 | 2250 ± 250 | 990 ± 40 | 670 ± 90 | – | – | – | – | – | O=C(CCCCCCN1C(=O)C/C(=C\c2ccccn2)C1=O)NO [Example I-21, (E)-7-(3-(2-methylenepyridin)-2,5-diketopyrrolidinyl)-N-hydroxyheptamide] | 88.3% ± 1.1% | – |
| > 20000 | > 20000 | > 20000 | > 20000 | – | – | – | – | – | O=C(CCCN1C(=O)C/C(=C\c2ccccc2)C1=O)NO [Example I-1, (E)-4-(3-benzal-2,5-dioxopyrrolidinyl)-N-hydroxybutyramide] | – | – |
| 2580 ± 70 | 3510 ± 150 | 4270 ± 250 | 1490 ± 210 | – | – | – | – | – | O=C(CCCCCN1C(=O)C/C(=C\c2ccccc2)C1=O)NO [Example I-3] | – | – |
| > 20000 | > 20000 | > 20000 | > 20000 | – | – | – | – | – | O=C(CCCCN1C(=O)C/C(=C\c2ccccc2)C1=O)NO [Example I-2] | – | – |
| > 20000 | > 20000 | > 20000 | > 20000 | – | – | – | – | – | O=C(CCCCCCN1C(=O)C/C(=C\c2ccccc2)C1=O)N[C@H]1CCCC[C@@H]1O [Example I-13, 7-(3-((E)-benzal)-2,5-diketopyrrolidinyl)-N-((1S,2S)-2-hydroxycyclohexyl)heptamide] | 0% | – |
| 970 ± 50 | 3440 ± 150 | 910 ± 70 | 540 ± 100 | – | – | – | – | – | O=C(CCCCCCN1C(=O)C/C(=C\c2cccs2)C1=O)NO [Example I-23, (E)-7-(3-(2-methylenethienyl)-2,5-diketopyrrolidinyl)-N-hydroxyheptamide] | 84.9% ± 0.5% | – |
| 800 ± 150 | 4340 ± 690 | 1930 ± 230 | 1720 ± 120 | – | – | – | – | – | O=C(CCCCCCN1C(=O)C/C(=C\c2ccccc2O)C1=O)NO [Example I-37, (E)-7-(3-(2-hydroxybenzal)-2,5-diketopyrrolidinyl)-N-hydroxyheptamide] | 90.6% ± 0.9% | – |
| 1680 ± 90 | 3370 ± 430 | 1830 ± 50 | 1220 ± 180 | – | – | – | – | – | O=C(CCCCCCN1C(=O)C/C(=C\c2ccc(C(F)(F)F)cc2)C1=O)NO [Example I-17, (E)-7-(3-(4-trifluoromethylbenzal)-2,5-diketopyrrolidinyl)-N-hydroxyheptamide] | 76.2% ± 0.7% | – |
| 3890 ± 360 | 5880 ± 580 | 5010 ± 380 | 1560 ± 180 | – | – | – | – | – | O=C(CCCCCCCN1C(=O)C/C(=C\c2ccccc2)C1=O)NO [Example I-5] | – | – |
